Conditions: buffer, pH 7.4

SMILES | Aqueous solubility [ng/mL]
COc1ccc(C(=O)/C(Cc2cc(OC)c(OC)c(OCCCC(=O)O)c2)=C(\C(=O)[O-])c2ccc3c(c2)OCO3)cc1.[Na+] | > 250
COc1ccc(C(=O)/C(Cc2cc(OC)c(OC)c(OC)c2)=C(\C(=O)[O-])c2ccc3c(c2)OCO3)cc1.[Na+] [PD-156707 SODIUM] | > 125
COc1ccc(C2(O)OC(=O)C(c3ccc4c(c3)OCO4)=C2Cc2cc(OC)c(OC)c(OC)c2)cc1 (stereo not drawn) [PD-156707] | < 0.01
